*1 amine or outer side, *2 acyl side, *3 side chain or, on linkers, in order; H or OH if unused. Where a SMILES comes first, the peptide text is derived from it. The star is where a group is joined. X7 = O=C(OC[C@@H](COS(=O)(=O)O)OS(=O)(=O)O)*; X6 = O=C(OC[C@H](COS(=O)(=O)O)OS(=O)(=O)O)*; X12 = O=S(=O)(O)OC[C@H](CN*)OS(=O)(=O)O; X2 = O=S(=O)(O)OC[C@@H](CN*)OS(=O)(=O)O; NH(3-hydroxypropyl) = OCCCN*; X3 = O=C(OCCCOS(=O)(=O)O)*; X10 = O=C(OC[C@@H](O)CO)*; X11 = O=C(OC[C@H](O)CO)*; X9 = O=S(=O)(O)OCCCCN*; X5 = O=S(=O)(O)OCCCN*; CO = O=C([*:1])[*:2]; NH(CH2)4OH = OCCCCN*; X14 = OC[C@H](O)CN*; X4 = OC[C@@H](O)CN*; X13 = O=C(OCCCO)*
What was measured:
[1] = target: Amyloid-beta precursor protein (Homo sapiens) (UniProt P05067); experiment: Inhibition of amyloid beta (1 to 42) aggregation in HBP assessed as beta sheet formation at 1:20 protein to compound ratio after 48 hrs by Th-T fluorescence assay relative to control; parameters: scale not given: the % may be the effect or the level left
[2] = target: Amyloid-beta precursor protein (Homo sapiens) (UniProt P05067); experiment: Inhibition of amyloid beta (1 to 42)-mediated cytotoxicity in HBP assessed as cell death at 1:5 protein to compound ratio after 6 days by fluorescence assay relative to control; parameters: scale not given: the % may be the effect or the level left
[3] = Cytotoxicity against HBP assessed as cell death at 50 uM after 6 days by fluorescence assay; settings: human, 144 h
[4] = target: Amyloid-beta precursor protein (Homo sapiens) (UniProt P05067); experiment: Inhibition of monomeric amyloid beta (unknown origin)-mediated cytotoxicity at 1:5 protein to compound ratio by cell-based assay relative to control; settings: concentration not given here
[5] = target: Amyloid-beta precursor protein (Homo sapiens) (UniProt P05067); experiment: Inhibition of monomeric amyloid beta (unknown origin) aggregation at 1:20 protein to compound ratio relative to control; settings: concentration not given here

Amyloid-beta precursor protein (Homo sapiens), sequence (P05067 whole entry): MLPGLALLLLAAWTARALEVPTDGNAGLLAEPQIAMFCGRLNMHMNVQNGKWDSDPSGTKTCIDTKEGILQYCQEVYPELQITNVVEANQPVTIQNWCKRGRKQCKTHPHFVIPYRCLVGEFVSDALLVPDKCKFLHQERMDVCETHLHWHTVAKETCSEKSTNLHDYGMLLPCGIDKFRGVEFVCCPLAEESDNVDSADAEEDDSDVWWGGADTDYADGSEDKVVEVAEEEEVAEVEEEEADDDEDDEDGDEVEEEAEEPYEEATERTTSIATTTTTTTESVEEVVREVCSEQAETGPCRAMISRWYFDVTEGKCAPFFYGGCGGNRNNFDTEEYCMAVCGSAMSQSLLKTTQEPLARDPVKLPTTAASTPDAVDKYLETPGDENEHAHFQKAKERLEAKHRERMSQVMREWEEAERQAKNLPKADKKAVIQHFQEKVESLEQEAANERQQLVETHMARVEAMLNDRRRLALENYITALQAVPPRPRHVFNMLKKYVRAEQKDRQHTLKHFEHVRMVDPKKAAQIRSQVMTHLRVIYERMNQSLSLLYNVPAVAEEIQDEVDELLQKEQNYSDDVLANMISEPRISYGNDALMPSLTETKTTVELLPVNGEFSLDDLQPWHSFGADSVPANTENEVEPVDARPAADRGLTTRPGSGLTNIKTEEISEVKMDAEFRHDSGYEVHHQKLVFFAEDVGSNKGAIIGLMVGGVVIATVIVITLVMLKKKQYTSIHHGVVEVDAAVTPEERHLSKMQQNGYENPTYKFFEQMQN

## CC(C)C[C@H](NC(=O)OCC(CO)CO)C(=O)N1CCC[C@H]1C(=O)N[C@@H](Cc1ccccc1)C(=O)N[C@@H](Cc1ccccc1)C(=O)N[C@@H](CC(=O)O)C(=O)O
[1]
  Activity: 76.4%
[2]
  Activity: 81.1%
[3]
  Activity: Non-toxic

## CC(C)C[C@H](NC(=O)OCC(CO)CO)C(=O)N1CCC[C@@H]1C(=O)N[C@@H](Cc1ccccc1)C(=O)N[C@@H](Cc1ccccc1)C(=O)N[C@@H](CC(=O)O)C(=O)O
[1]
  Activity: 87.9%
[2]
  Activity: 94.8%

## CC(C)C[C@H](NC(=O)OCC(COS(=O)(=O)O)CS(=O)(=O)O)C(=O)N1CCC[C@@H]1C(=O)N[C@@H](Cc1ccccc1)C(=O)N[C@@H](Cc1ccccc1)C(=O)N[C@@H](CC(=O)O)C(=O)O (some centres undefined)
[1]
  Activity: 94.7%
[2]
  Activity: 93.8%

## CC(C)C[C@H](NC(=O)OCCCOS(=O)(=O)O)C(=O)N1CCC[C@H]1C(=O)N[C@@H](Cc1ccccc1)C(=O)N[C@@H](Cc1ccccc1)C(=O)N[C@@H](CC(=O)O)C(N)=O (X3-LPFFD-NH2)
[1]
  Activity: 107%
[2]
  Activity: 107%

## CC(C)C[C@H](NC(=O)OC[C@H](COS(=O)(=O)O)OS(=O)(=O)O)C(=O)N1CCC[C@H]1C(=O)N[C@@H](Cc1ccccc1)C(=O)N[C@@H](Cc1ccccc1)C(=O)N[C@@H](CC(=O)O)C(N)=O (X6-LPFFD-NH2)
[1]
  Activity: 95.1%
[2]
  Activity: 91.4%

## CC(C)C[C@H](NC(=O)OC[C@@H](COS(=O)(=O)O)OS(=O)(=O)O)C(=O)N1CCC[C@H]1C(=O)N[C@@H](Cc1ccccc1)C(=O)N[C@@H](Cc1ccccc1)C(=O)N[C@@H](CC(=O)O)C(N)=O (X7-LPFFD-NH2)
[1]
  Activity: 96.3%
[2]
  Activity: 95.9%

## CC(C)C[C@H](NC(=O)OC[C@@H](O)CO)C(=O)N1CCC[C@H]1C(=O)N[C@@H](Cc1ccccc1)C(=O)N[C@@H](Cc1ccccc1)C(=O)N[C@@H](CC(=O)O)C(N)=O (X10-LPFFD-NH2)
[1]
  Activity: 97%
[2]
  Activity: 89.7%

## CC(C)C[C@H](NC(=O)OC[C@H](O)CO)C(=O)N1CCC[C@H]1C(=O)N[C@@H](Cc1ccccc1)C(=O)N[C@@H](Cc1ccccc1)C(=O)N[C@@H](CC(=O)O)C(N)=O (X11-LPFFD-NH2)
[1]
  Activity: 100%
[2]
  Activity: 91.6%

## CC(C)C[C@H](NC(=O)OCCCO)C(=O)N1CCC[C@H]1C(=O)N[C@@H](Cc1ccccc1)C(=O)N[C@@H](Cc1ccccc1)C(=O)N[C@@H](CC(=O)O)C(N)=O (X13-LPFFD-NH2)
[1]
  Activity: 92.9%
[2]
  Activity: 93%

## CC(C)C[C@H](NC(=O)NCCCO)C(=O)N1CCC[C@H]1C(=O)N[C@@H](Cc1ccccc1)C(=O)N[C@@H](Cc1ccccc1)C(=O)N[C@@H](CC(=O)O)C(N)=O ({NH(3-hydroxypropyl)-CO}-LPFFD-NH2)
[1]
  Activity: 82.7%
[2]
  Activity: 96.1%

## CC(C)C[C@H](NC(=O)NCCCCO)C(=O)N1CCC[C@H]1C(=O)N[C@@H](Cc1ccccc1)C(=O)N[C@@H](Cc1ccccc1)C(=O)N[C@@H](CC(=O)O)C(N)=O ({NH(CH2)4OH-CO}-LPFFD-NH2)
[1]
  Activity: 100%
[2]
  Activity: 99.6%

## CC(C)C[C@H](NC(=O)NC[C@H](COS(=O)(=O)O)OS(=O)(=O)O)C(=O)N1CCC[C@H]1C(=O)N[C@@H](Cc1ccccc1)C(=O)N[C@@H](Cc1ccccc1)C(=O)N[C@@H](CC(=O)O)C(N)=O ({X2-CO}-LPFFD-NH2)
[1]
  Activity: 120%
[2]
  Activity: 92%

## CC(C)C[C@H](NC(=O)NC[C@H](O)CO)C(=O)N1CCC[C@H]1C(=O)N[C@@H](Cc1ccccc1)C(=O)N[C@@H](Cc1ccccc1)C(=O)N[C@@H](CC(=O)O)C(N)=O ({X4-CO}-LPFFD-NH2)
[1]
  Activity: 98.7%
[2]
  Activity: 92.5%

## CC(C)C[C@H](NC(=O)NCCCOS(=O)(=O)O)C(=O)N1CCC[C@H]1C(=O)N[C@@H](Cc1ccccc1)C(=O)N[C@@H](Cc1ccccc1)C(=O)N[C@@H](CC(=O)O)C(N)=O ({X5-CO}-LPFFD-NH2)
[1]
  Activity: 83%
[2]
  Activity: 95.9%

## CC(C)C[C@H](NC(=O)NCCCCOS(=O)(=O)O)C(=O)N1CCC[C@H]1C(=O)N[C@@H](Cc1ccccc1)C(=O)N[C@@H](Cc1ccccc1)C(=O)N[C@@H](CC(=O)O)C(N)=O ({X9-CO}-LPFFD-NH2)
[1]
  Activity: 100%
[2]
  Activity: 96.5%

## CC(C)C[C@H](NC(=O)NC[C@@H](COS(=O)(=O)O)OS(=O)(=O)O)C(=O)N1CCC[C@H]1C(=O)N[C@@H](Cc1ccccc1)C(=O)N[C@@H](Cc1ccccc1)C(=O)N[C@@H](CC(=O)O)C(N)=O ({X12-CO}-LPFFD-NH2)
[1]
  Activity: 127%
[2]
  Activity: 92%

## CC(C)C[C@H](NC(=O)NC[C@@H](O)CO)C(=O)N1CCC[C@H]1C(=O)N[C@@H](Cc1ccccc1)C(=O)N[C@@H](Cc1ccccc1)C(=O)N[C@@H](CC(=O)O)C(N)=O ({X14-CO}-LPFFD-NH2)
[1]
  Activity: 98.7%
[2]
  Activity: 96.6%

## Ac-LPFFD-NH2
[4]
  inhibition: 50%
[1]
  Activity: 51.9%
[5]
  inhibition: 50%
[2]
  Activity: 51.8%
